In assay [1] the test system is Hippocampus. Description: Neuroprotective activity in Wistar rat hippocampal slices assessed as ATP concentration at 50 uM relative to tetrodotoxin. Type of assay: functional.
Assay [2] can be described thus: Inhibition of voltage-gated sodium channel in Wistar rat forebrain synaptosomes assessed as inhibition of [14C]guanidium ion flux. Type of assay: subcellular, Brain.
The target of assay [3] is Cytochrome P450 2D6 (Homo sapiens, UniProt P10635). Description: Inhibition of human recombinant CYP2D6. It counts as ADME.
Assay [4] concerns the target T1, Cytochrome P450 1A2 (Homo sapiens, UniProt P05177).
T1 sequence (P05177 whole entry): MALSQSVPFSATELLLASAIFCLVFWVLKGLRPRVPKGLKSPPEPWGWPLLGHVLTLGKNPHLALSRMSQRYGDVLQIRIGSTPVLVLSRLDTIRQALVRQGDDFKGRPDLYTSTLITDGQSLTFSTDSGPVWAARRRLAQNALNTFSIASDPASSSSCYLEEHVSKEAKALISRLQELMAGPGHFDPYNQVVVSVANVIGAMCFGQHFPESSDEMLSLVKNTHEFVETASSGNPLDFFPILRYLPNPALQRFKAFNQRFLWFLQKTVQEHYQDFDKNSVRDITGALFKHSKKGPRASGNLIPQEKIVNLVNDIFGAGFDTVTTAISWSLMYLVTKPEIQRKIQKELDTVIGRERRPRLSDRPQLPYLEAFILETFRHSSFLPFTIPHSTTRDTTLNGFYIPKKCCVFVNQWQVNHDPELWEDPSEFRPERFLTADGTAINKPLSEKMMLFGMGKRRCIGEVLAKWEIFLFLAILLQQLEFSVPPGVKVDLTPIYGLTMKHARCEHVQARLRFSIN
Description: Inhibition of human recombinant CYP1A2. It counts as ADME.

Chain of Cytochrome P450 2D6 (P10635 whole entry): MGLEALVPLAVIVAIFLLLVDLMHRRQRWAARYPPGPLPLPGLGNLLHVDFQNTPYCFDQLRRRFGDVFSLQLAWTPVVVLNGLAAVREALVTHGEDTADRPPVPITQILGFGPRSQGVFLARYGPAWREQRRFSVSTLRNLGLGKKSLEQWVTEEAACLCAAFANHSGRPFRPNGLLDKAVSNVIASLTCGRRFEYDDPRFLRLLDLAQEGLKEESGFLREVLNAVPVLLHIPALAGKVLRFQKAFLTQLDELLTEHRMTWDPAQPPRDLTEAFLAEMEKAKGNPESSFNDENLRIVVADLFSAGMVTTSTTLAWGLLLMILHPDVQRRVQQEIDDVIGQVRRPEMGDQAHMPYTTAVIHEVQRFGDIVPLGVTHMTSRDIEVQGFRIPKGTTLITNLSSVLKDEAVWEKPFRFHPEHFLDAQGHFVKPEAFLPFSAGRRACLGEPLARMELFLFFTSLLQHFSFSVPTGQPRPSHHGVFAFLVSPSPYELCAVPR

The IC50 is the midpoint of a concentration-inhibition curve. Consider `NCc1noc(-c2nn(Cc3cccc(OC(F)(F)F)c3)c3ccccc23)n1`, for which the Activity in assay [1] amounted to 33%. For the same compound, the IC50 in assay [2] worked out at 26 µM.

Take `Cc1cccc(Cn2nc(-c3nc(CNC(=O)OC(C)(C)C)no3)c3ccccc32)c1`: the Activity in assay [1] is 0%. Besides, the IC50 is 20 µM in assay [3] and 1 µM in assay [2].

With `NCc1noc(-c2nn(CCOc3ccccc3)c3ccccc23)n1`, the Activity in assay [1] stood at 40%. In addition, the IC50 in assay [2] was 30 µM.

For the compound `Cc1cc(C)cc(Cn2nc3ccccc3c2-c2nc(CN)no2)c1`, the Activity in assay [1] turned out to be 35%. For the same compound, in assay [2], the IC50 was determined as 14 µM.

As for `Cc1cc(C)cc(Cn2nc(-c3nc(CN)no3)c3ccccc32)c1`, the half-maximal inhibitory concentration (IC50) came to 0.062 µM in assay [4], 3.73 µM in assay [3] and 15 µM in assay [2]. Besides, the Activity in assay [1] is reported as 43%.

For `COc1cc(Cn2nc(-c3nc(CN)no3)c3ccccc32)cc(OC)c1OC`, the Activity in assay [1] was determined as 28%. Also, the IC50 in assay [2] was determined as 178 µM.

With `NCc1noc(-c2nn(CCc3ccccc3)c3ccccc23)n1`, the IC50 in assay [4] was determined as 0.034 µM; in assay [3], 1.32 µM; in assay [2] it was 35 µM. Besides, in assay [1], the Activity is given as 49%.

Consider `CC(=O)n1nc(-c2nc(CN)no2)c2ccccc21`, for which the Activity in assay [1] is listed as 24%. Further, the IC50 was more than 10 µM in assay [3] and more than 300 µM in assay [2].

As for `COc1cc(Cn2nc(-c3nc(CNC(=O)OC(C)(C)C)no3)c3ccccc32)cc(OC)c1OC`, the Activity in assay [1] turned out to be 0%. For the same compound, in assay [2], the IC50 turned out to be 195 µM.

Regarding `CC(C)(C)OC(=O)NCc1noc(-c2nn(Cc3ccc(-c4cn[nH]c4)cc3)c3ccccc23)n1`, in assay [1], the Activity worked out at 20%. The results for the IC50 in assay [3] and in assay [2] were more than 10 µM and 16 µM, respectively.

As for `NCc1noc(-c2c3ccccc3nn2CCc2ccccc2)n1`, the values for the IC50 in assay [4], in assay [3] and in assay [2] were 0.36 µM, 4.27 µM and 19 µM, respectively. Further, the Activity in assay [1] came to 54%.

For the compound `CC(C)(C)OC(=O)NCc1noc(-c2nn(Cc3ccc4c(c3)OCO4)c3ccccc23)n1`, the half-inhibitory concentration (IC50) stood at 4.86 µM in assay [4], 3.3 µM in assay [3] and 1 µM in assay [2]. Moreover, the Activity in assay [1] was 0%.

With `CC(C)(C)OC(=O)NCc1noc(-c2nn(CCOc3ccccc3)c3ccccc23)n1`, the Activity in assay [1] is reported as 8%. Also, the IC50 in assay [2] amounted to 6 µM.

For the compound `CC(C)(C)OC(=O)NCc1noc(-c2nn(Cc3cc(F)cc(F)c3F)c3ccccc23)n1`, the Activity in assay [1] is 0%. Besides, the IC50 in assay [2] was determined as 1 µM.

In the case of `Cc1ccc(Cn2nc(-c3nc(CN)no3)c3ccccc32)cc1`, the Activity in assay [1] is 34%. Also, the IC50 in assay [2] is 17 µM.

For the compound `Cc1cc(C)cc(Cn2nc3ccccc3c2-c2nc(CNC(=O)OC(C)(C)C)no2)c1`, the Activity in assay [1] is given as 0%. In assay [2], the IC50 turned out to be 12 µM.

On to `NCc1noc(-c2nn(Cc3ccc(C(N)=O)cc3)c3ccccc23)n1`, for which the Activity in assay [1] is listed as 8%. In addition, the IC50 in assay [3] stood at 1.3 µM; in assay [2], 195 µM.

As for `COc1ccc(S(=O)(=O)n2nc(-c3nc(CN)no3)c3ccccc32)cc1OC`, the IC50 in assay [4] is more than 10 µM; in assay [3] it was 2.9 µM; in assay [2], 102 µM. Also, in assay [1], the Activity is 2%.

Regarding `Cc1cccc(Cn2nc(-c3nc(CN)no3)c3ccccc32)c1`, the IC50 was 0.084 µM in assay [4], 3.96 µM in assay [3] and 28 µM in assay [2]. For the same compound, the Activity in assay [1] came to 45%.

For the compound `NCc1noc(-c2n[nH]c3ccccc23)n1`, the IC50 worked out at 0.21 µM in assay [4], 1 µM in assay [3] and 2190 µM in assay [2]. Further, in assay [1], the Activity was 10%.

Regarding `Cc1ccc(Cn2nc(-c3nc(CNC(=O)OC(C)(C)C)no3)c3ccccc32)cc1`, the Activity in assay [1] is given as 0%. In addition, the IC50 in assay [2] came to 2 µM.

For `Cc1cccc(Cn2nc3ccccc3c2-c2nc(CNC(=O)OC(C)(C)C)no2)c1`, the Activity in assay [1] is on record as 0%. Further, the IC50 in assay [2] stood at 151 µM.

As to `CC(C)(C)OC(=O)NCc1noc(-c2nn(Cc3ccccc3)c3ccccc23)n1`, in assay [1], the Activity amounted to 19%. In addition, the IC50 in assay [2] came to 5 µM.

For the compound `COc1ccc(S(=O)(=O)n2nc(-c3nc(CNC(=O)OC(C)(C)C)no3)c3ccccc32)cc1OC`, the Activity in assay [1] came out at 10%. The IC50 in assay [3] was 20 µM; in assay [2] it was 2 µM.

On to `COc1ccc(Cn2nc(-c3nc(CN)no3)c3ccccc32)cc1`, for which the Activity in assay [1] was found to be 35%. Besides, in assay [2], the IC50 is 38 µM.

Turning to `CC(C)(C)OC(=O)NCc1noc(-c2nn(Cc3ccccc3Cl)c3ccccc23)n1`, the Activity in assay [1] came to 9%. In assay [2], the IC50 is more than 300 µM.

As to `COc1ccc(Cn2nc(-c3nc(CNC(=O)OC(C)(C)C)no3)c3ccccc32)cc1`, the Activity in assay [1] is recorded as 0%. The 50% inhibitory concentration (IC50) in assay [2] was 4 µM.

Take `Cc1nc(-c2ccc(Cn3nc(-c4nc(CN)no4)c4ccccc43)cc2)no1`: the IC50 in assay [2] is 58 µM.

For the compound `CC(C)(C)OC(=O)NCc1noc(-c2c3ccccc3nn2Cc2ccccc2)n1`, the Activity in assay [1] is recorded as 25%. Moreover, the IC50 in assay [2] is 174 µM.

Regarding `Cc1nc(-c2ccc(Cn3nc(-c4nc(CNC(=O)OC(C)(C)C)no4)c4ccccc43)cc2)no1`, in assay [2], the IC50 stood at 1 µM.

For `NCc1noc(-c2nn(Cc3ccc4ccccc4c3)c3ccccc23)n1`, in assay [1], the Activity is 11%. Also, the IC50 in assay [2] was determined as 20 µM.

For `CC(C)(C)OC(=O)NCc1noc(-c2nn(Cc3cccc(OC(F)(F)F)c3)c3ccccc23)n1`, the Activity in assay [1] was found to be 0%. Further, in assay [2], the IC50 was 0.9 µM.

For the compound `NCc1noc(-c2nn(Cc3cc(F)cc(F)c3F)c3ccccc23)n1`, the Activity in assay [1] was determined as 59%. Besides, in assay [2], the IC50 came out at 35 µM.

As for `NCc1noc(-c2nn(Cc3ccccc3Cl)c3ccccc23)n1`, the Activity in assay [1] is recorded as 43%. In assay [2], the IC50 is 20 µM.

With `CC(C)(C)OC(=O)NCc1noc(-c2nn(Cc3ccc4ccccc4c3)c3ccccc23)n1`, the Activity in assay [1] stood at 0%. Also, the IC50 in assay [2] amounted to 0.4 µM.

`NCc1noc(-c2c3ccccc3nn2Cc2ccc3c(c2)OCO3)n1`: in assay [1], the Activity is reported as 55%. Also, the IC50 in assay [2] worked out at 34 µM.

Turning to `Cc1cccc(Cn2nc3ccccc3c2-c2nc(CN)no2)c1`, the Activity in assay [1] is on record as 37%. The IC50 in assay [2] was found to be 26 µM.

As to `CC(=O)Nc1ccc(Cn2nc(-c3nc(CN)no3)c3ccccc32)cc1`, the Activity in assay [1] was found to be 10%. Also, the IC50 in assay [2] is 309 µM.

On to `CC(C)(C)OC(=O)NCc1noc(-c2nn(Cc3cccc(Cl)c3)c3ccccc23)n1`, for which the Activity in assay [1] came out at 12%. The IC50 in assay [2] came out at 4 µM.

With `CC(C)(C)OC(=O)NCc1noc(-c2nn(Cc3cccc(C(F)(F)F)c3)c3ccccc23)n1`, in assay [1], the Activity is reported as 3%. Besides, the IC50 in assay [2] was determined as 8 µM.

On to `Cc1ccccc1Cn1nc(-c2nc(CNC(=O)OC(C)(C)C)no2)c2ccccc21`, for which, in assay [1], the Activity was 0%. In addition, in assay [2], the IC50 is 3 µM.

Take `O=S(=O)(NCc1noc(-c2nn(Cc3ccccc3)c3ccccc23)n1)c1ccccc1`: the Activity in assay [1] stood at 20%. The IC50 in assay [2] was 5 µM.

Consider `CC(C)(C)OC(=O)NCc1noc(-c2nn(CCc3ccccc3)c3ccccc23)n1`, for which the Activity in assay [1] is recorded as 0%. Moreover, the IC50 in assay [2] is 5 µM.

Consider `O=C(NCc1noc(-c2nn(Cc3ccccc3)c3ccccc23)n1)OCc1ccccc1`, for which the Activity in assay [1] is 12%. For the same compound, the IC50 in assay [2] was 5 µM.

For the compound `CC(C)(C)OC(=O)NCc1noc(-c2c3ccccc3nn2Cc2cccc(Cl)c2)n1`, in assay [1], the Activity was found to be 0%. Besides, in assay [2], the IC50 amounted to 4 µM.

Consider `NCc1noc(-c2nn(Cc3ccc(-c4cn[nH]c4)cc3)c3ccccc23)n1`, for which, in assay [1], the Activity is 26%. Besides, the IC50 in assay [2] worked out at 63 µM.

Consider `NCc1noc(-c2nn(Cc3cccc(Cl)c3)c3ccccc23)n1`, for which the Activity in assay [1] came out at 50%. For the same compound, in assay [2], the IC50 came to 14 µM.

As to `CC(=O)n1nc(-c2nc(CNC(=O)OC(C)(C)C)no2)c2ccccc21`, the Activity in assay [1] turned out to be 4%. The IC50 is more than 10 µM in assay [3] and 132 µM in assay [2].

In the case of `CC(C)(C)OC(=O)NCc1noc(-c2c3ccccc3nn2Cc2ccc3c(c2)OCO3)n1`, the Activity in assay [1] turned out to be 0%. The IC50 in assay [2] was 3 µM.

As to `Cc1cc(C)cc(Cn2nc(-c3nc(CNC(=O)OC(C)(C)C)no3)c3ccccc32)c1`, the Activity in assay [1] is listed as 0%. In addition, in assay [2], the IC50 came out at 4 µM.

`CC(C)(C)OC(=O)NCc1noc(-c2nn(Cc3ccc(C(N)=O)cc3)c3ccccc23)n1`: the Activity in assay [1] was determined as 29%. Also, the IC50 is more than 10 µM in assay [3] and 24 µM in assay [2].

With `O=C(NCc1noc(-c2nn(Cc3ccccc3)c3ccccc23)n1)c1ccccc1`, the Activity in assay [1] is 23%. The IC50 in assay [2] was determined as 18 µM.

On to `NCc1noc(-c2nn(Cc3cccc(C(F)(F)F)c3)c3ccccc23)n1`, for which the Activity in assay [1] came out at 58%. Also, in assay [2], the IC50 was found to be 26 µM.

Turning to `Cc1ccccc1Cn1nc(-c2nc(CN)no2)c2ccccc21`, in assay [1], the Activity was 46%. Moreover, in assay [2], the IC50 stood at 26 µM.

With `CC(C)(C)OC(=O)NCc1noc(-c2c3ccccc3nn2CCc2ccccc2)n1`, in assay [1], the Activity came out at 0%. Further, the IC50 in assay [2] is 85 µM.

As to `NCc1noc(-c2nn(Cc3ccc4c(c3)OCO4)c3ccccc23)n1`, the Activity in assay [1] is listed as 44%. Moreover, the concentration for half-maximal inhibition (IC50) in assay [2] amounted to 30 µM.

For the origin of these results see ChEMBL document CHEMBL1138611, “Oxadiazolylindazole sodium channel modulators are neuroprotective toward hippocampal neurones” (J Med Chem, 2009).
